# Source: US12011426B2, “Methods of metabolic regulation of mitochondria for treating neural injury and neurological disorders” (The USA, as represented by the Secretary, Dept. of Health …, priority 2018, dated 2024)
# What was measured:
# [1] = test system: retina ganglion cells (RGCs); test: Optic nerve crush (ONC), retina ganglion cell survival; assay type: in vivo, ground squirrel; conditions: awake animals; injected into the eye before and after the ONC surgery
# Excerpt: Previous work has shown that succinate regulates macrophages, causing them to switch between pro-inflammatory and anti-inflammatory states (Mills, et al., (2016) Succinate Dehydrogenase Supports Metabolic Repurposing of Mitochondria to Drive Inflammatory Macrophages. Cell, […]; 457-470.e13). Thus, the inventors hypothesized that immune regulation due to reduced succinate levels may occur in the retina during hibernation, and that this may subsequently affect cellular response to neural injury. To test this hypothesis, optic nerve crush (ONC), a classic axonal injury experiment, was performed in awake and in hibernating ground squirrels. Retina ganglion cells (RGCs) appeared to survive ONC during hibernation (FIG. 4). Intriguingly, a key cellular response difference between awake and hibernating animals to ONC is microglial aggregation and activation, in line with the hypothesis that low succinate level during hibernation may prevent microglia from activation in response to injury. To further test this hypothesis, a second experiment was done in which dimethyl malonate (DMM), an inhibitor of SDH, was injected into the eye before and after the ONC surgery in awake animals to create a lower succinate condition, thereby mimicking hibernation. […] To further examine the role of microglia, microglia were pharmacologically eliminated before ONC surgery in awake animals. […]
# [2] = test system: microglia cell line (BV2); test: LPS-induced pro-inflammatory cytokine production in a microglia cell line; assay type: cell-based, mouse
# Excerpt: The direct effect of DMM on microglia was examined by conducting an in vitro experiment using a microglia cell line (BV2).
# (§1) It is known in the art that a key event in the LPS-induced macrophage activation is the over-production of mitochondrial ROS driven by the hyperpolarization of mitochondrial membrane potential and SDH-accelerated succinate oxidation (Mills et al., 2016). However, for the retina, it is challenging to perform live ROS measurement, because enucleation causes an acute ROS surge due to severing of the optic nerve. Thus, a method was developed to visualize in situ mitochondrial ROS production in thirteen lined ground squirrel (TLGS) retina with optic nerve crush (ONC), that used a mitochondrial ROS dye—MitoNeoD (Shchepinova et al., 2017). […] In active TLGS retina with partial ONC injuries, it was observed that above the optic nerve fiber/RGC layers there were cells decorated with bright MitoNeoOH (oxidized and fluorescent form of MitoNeoD) signals (arrows in FIG. 6D) overlapping with a mitochondrial protein marker (TOM20) (FIGS. 7A, 7B, and 7C). These cells were then confirmed to be mostly microglial cells (FIGS. 7D, 7E, and 7F). It was then confirmed that intraocular injection of DMM indeed lowered SDH activity in the retina of ONC-injured active TLGSs (FIG. 8B).
# [3] = test system: mitochondrial ROS; test: In situ mitochondrial ROS production in retina after partial ONC (MitoNeoD dye); assay type: in vivo, thirteen lined ground squirrel (TLGS); conditions: active TLGSs with ONC; intraocular injection
# Excerpt: as §1
# [4] = test system: succinate dehydrogenase (SDH); test: SDH activity in the retina of ONC-injured active TLGSs; assay type: in vivo, thirteen lined ground squirrel (TLGS); conditions: intraocular injection
# Excerpt: as §1
# [5] = cultured microglial cells, 100 ng/ml LPS + 1 mM or 10 mM DMM
# [6] = mouse BV-2, concentration not given
compound,measurement,setting,value
"COC(=O)CC(=O)OC [DMM, dimethyl malonate]",RGC survival after ONC,[1],significantly improved
same,response of microglia to LPS,"[2]; BV2, DMM 1 or 10 mM",significantly attenuated
same,production of IL1A,[2]; [5],significantly reduced
same,production of MCP-1,[2]; [5],significantly reduced
same,LPS-induced production of IL-1α,[2]; [6],effectively reduced
same,LPS-induced production of IL-6,[2]; [6],effectively reduced
same,LPS-induced production of MCP-1,[2]; [6],effectively reduced
same,mitochondrial ROS production,[3],significantly alleviated
same,SDH activity in the retina,[4],lowered
